Literature values as cited in patent US7510836B2, “Alpha arteether resistance domain” (priority 2003, dated 2009).

How the values were obtained:
[1] = cited from earlier work
[2] = tested on: malaria; settings: cited from earlier work
[3] = cited from earlier work; remark: listed apart in the source

SMILES: C[C@@H]1CC[C@H]2[C@@H](C)C(=O)O[C@@H]3O[C@@]4(C)CC[C@@H]1[C@]32OO4 [Artemisinin, artemisinin]
- Solubility in most aprotic solvents ([1]; aprotic solvents): readily soluble
- Solubility in water and oil ([1]; water and oil): poorly soluble
- Plasmodicidal property [2]: high plasmodicidal property
- half-life [3]: short
